The term Cmax denotes the peak of the concentration-time curve. For orientation: AUC means the area under the concentration-time curve, a measure of exposure. In general, Tmax refers to the time at which the peak concentration occurs. For orientation: half-life means the time in which the quantity being followed falls by half. Lower therefore signals fast loss. In general, bioavailability refers to the share of a dose that reaches the circulation, judged against a reference dose that is usually intravenous. In general, EC50 refers to the concentration at which the effect is half-maximal. The IC50 is the concentration at which inhibition is half-maximal.

The nature of series [1]: Comparison of concentration in plasma and brain tissue. The class given is in vivo, mice. As to conditions: 20 mg/kg. The source says:
Additionally, a comparison of Compound 2 concentration in the plasma and brain tissue was made, the results of which are in FIG. 4B and Table 6.

A short description of series [2]: IV and PO plasma pharmacokinetics in rats. In kind it is in vivo. The following applies: Sprague-Dawley, rat, fasted female SD rats. The procedure:
Pharmacokinetic and toxicology of Compound 2 were tested in rats. The intravenous (IV) and oral (PO) pharmacokinetics of Compound 2 were determined in plasma in fasted female Sprague-Dawley (SD) rats. The formulation used was 20% solutol and 80% saline for both administration routes. The nominal dose was 2 mg/kg (IV) and 20 mg/kg (PO). Samples were taken at 8 time points and the drug concentrations were determined by LC-MS/MS.

The nature of series [3]: Oral pharmacokinetics in a single human DIPG patient. The class given is in vivo. As to conditions: free base, nominal 240 mg/m2 PO. The procedure: Compound 2 free base was tested in humans. Oral pharmacokinetics of Compound 2 were determined in a single human patient for the treatment of DIPG. The formulation was free base Compound 2 by gelatin capsule daily for 15 days, followed by a 20-day suspension period. Dosing was resumed by dissolving in juice and administering via nasogastric tube for 9 days. The nominal dose is 240 mg/m2 (PO). Blood samples were collected at four (4) time points and the drug concentrations are determined by LC-MS/MS.
Additional PK parameters were evaluated.

For series [4], the system named is ACVR1 mutant (G328V mutated cell line) and wild type DIPG cell lines. Kind of series: Proliferation assay against DIPG cell lines. In kind it is cell-based. As to conditions: ACVR1 G328V mutant vs wild type DIPG cell lines. As for the experimental part: Compound 2 was tested in a proliferation assay against ACVR1 mutant (G328V mutated cell line) and wild type DIPG cell lines in vitro.

For series [5], the system named is SMAD1/5 phosphorylation in BMP2 stimulated HepG2 cells. As to the kind of experiment: Inhibition of SMAD1/5 phosphorylation in BMP2 stimulated HepG2 cells. The following applies: Homo sapiens; HepG2 cells stimulated with BMP2. In kind it is cell-based. The source says:
SMAD proteins are transcription factors involved in signaling downstream of TGFβ receptors. The TGFβ receptor ALK2 phosphorylates SMADs when activated by bone morphogenic proteins such as BMP2, which leads to SMAD nuclear translocation, transcriptional initiation and increased expression of genes like HAMP which codes for the peptide hormone hepcidin. Therefore, compounds that target ALK2 should inhibit BMP induced SMAD phosphorylation. In order to evaluate the in vitro potency of Compound 2, HepG2 cells were stimulated with the ALK2 ligand BMP2 in the presence or absence of various concentrations of Compound 2.

In series [6] the test system is hepcidin expression in HepG2 cells. As to the kind of experiment: Inhibition of hepcidin expression in HepG2 cells (qPCR). The class given is cell-based. As to conditions: Homo sapiens. As for the experimental part: To evaluate the in vitro efficacy of Compound 2, HepG2 cells were stimulated with the ALK2 ligand BMP-2 in the presence or absence of various concentrations of Compound 2 and the resulting levels of hepcidin expression were measured by qPCR. The results shown in FIG. 2A, reveal a strong, dose responsive inhibition of hepcidin transcription by Compound 2 (EC50<1 nM). Effects on basal hepcidin transcription were also measured (in the absence of BMP-2 stimulation) and the results are shown in FIG. 2B. Under these experimental conditions, Compound 2 inhibited hepcidin expression in a dose responsive manner (IC50˜100 nM).

Another series addresses T1, ACVR1 G328V (Homo sapiens, UniProt Q04771, G328V).
T1 sequence (Q04771 21-509 G328V): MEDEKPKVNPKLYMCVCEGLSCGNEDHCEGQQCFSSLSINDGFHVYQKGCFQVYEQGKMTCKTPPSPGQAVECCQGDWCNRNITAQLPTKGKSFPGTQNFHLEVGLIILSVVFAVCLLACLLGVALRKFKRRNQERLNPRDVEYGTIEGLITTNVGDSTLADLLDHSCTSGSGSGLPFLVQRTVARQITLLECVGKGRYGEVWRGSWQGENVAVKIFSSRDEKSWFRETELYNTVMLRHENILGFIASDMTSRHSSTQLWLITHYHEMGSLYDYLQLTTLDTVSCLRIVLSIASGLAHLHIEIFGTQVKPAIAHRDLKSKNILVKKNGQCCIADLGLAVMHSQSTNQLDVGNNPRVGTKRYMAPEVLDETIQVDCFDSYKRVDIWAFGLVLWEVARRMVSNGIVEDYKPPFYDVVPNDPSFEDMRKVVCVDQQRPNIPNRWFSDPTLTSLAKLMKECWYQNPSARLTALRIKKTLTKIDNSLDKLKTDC
As to the kind of experiment: ACVR1 kinase assay, casein substrate, 33P-ATP, filter binding. The class given is biochemical. As to conditions: 10 μM ATP. The procedure:
In brief, casein-based substrates were prepared. The respective ACVR1 kinase was added to the substrate mixture and hot/cold 33P-ATP (10 μM) was added to initiate the reaction. The activity was then measured with a filter binding method.
The IC50 values against the kinases are listed below in Table 3.

In series [7] the test system is ALK2/ACVR1 having various mutations. As to the kind of experiment: Activity on ALK2/ACVR1 having various mutations (FIG. 8). In kind it is biochemical. The source says:
Biochemical Studies indicate that mutations in the intracellular domain can have activating effects on ACVR1/ALK2 kinase activity. Many of the known mutations enhance the activity of the receptor in response to the receptor ligand.

Where only a bound is given, the exact number is not on record here.

As to `COc1cc(Nc2nccc(Nc3cccnc3-c3ccccn3)n2)ccc1N1CCN(C)CC1` [Compound 2, N^4-(2,2′-bipyridin-3-yl)-N^2-(3-methoxy-4-(4-methylpiperazin-1-yl)phenyl)pyrimidine-2,4-diamine], the maximum concentration (Cmax) in series [1] (CD-1, mouse, po, brain) came to 1690 ng/g; in series [1] (CD-1, mouse, po, plasma), 378 ng/mL; in series [2] (20 mg/kg PO), 159 ng/mL. The AUC in series [1] (CD-1, mouse, po, plasma, read-out: AUC) was 2340 ng·h/mL; in series [1] (brain), 7,765 ng/g · hr; in series [2] (20 mg/kg PO) it was 2520 ng·h/mL. Further, the Tmax in series [2] (20 mg/kg PO) amounted to 5.33 h. Also, the half-life in series [2] (20 mg/kg PO) was 6.58 h. Moreover, in series [2] (20 mg/kg PO vs 2 mg/kg IV, read-out: Oral Bioavailability (% F)), the bioavailability is 60.8%. The “Oral absorption, detection in plasma” value in series [3] is recorded as “detected in plasma 24 hours post-dosing”. The “Activity in proliferation assay” value in series [4] is recorded as “selective activity against the mutated cell line”. Moreover, the EC50 is 0.162 µM in series [5] and less than 0.001 µM in series [6] (BMP-2 stimulation, qPCR, read-out: EC50, inhibition of hepcidin transcription). The IC50 in series [6] (absence of BMP-2 stimulation, read-out: IC50, inhibition of basal hepcidin expression) was roughly 0.1 µM; on ACVR1 G328V it was 0.0138 µM. Also, the “Inhibition of ALK2 receptors having various mutations” value in series [7] is “effective in inhibiting ALK2 receptors having various mutations”.
